US20080311126A1, “Antisense Oligonucleotides Directed to Ribonucleotide Reducatase R2 and Uses Thereof in Combination Therapies for the Treatment of Cancer” (Genesense Technologies, Inc, priority 2004, published 2008)
“Also recorded” adds a separate entry of the source.

What was measured:
Type in all cases: in vivo
[1] = system: Caki-1 human renal carcinoma; test: Caki-1 renal tumour xenograft in SCID mice, SEQ ID NO:1 and interferon alpha
Protocol: Cell Line: Human renal carcinoma cell line (Caki-1) was grown as monolayer culture in Minimum essential medium (α-MEM) supplemented with 10% fetal bovine serum (FEBS), 0.1 mM non-essential amino acid, 1.0 mM sodium pyruvate, 100 U/ml penicillin, 100 μg/ml streptomycin and 0.25 μg/ml amphotericin B and 2 mM L-alanyl-L-glutamine at 37° C. in an atmosphere of 5% CO2 in air. The tumour cells were routinely subcultured twice weekly by trypsin-EDTA treatment. The cells were harvested from subconfluent logarithmically growing culture by treatment with trypsin-EDTA and counted for tumour inoculation.
Tumour Inoculation: An acclimation period of at least 7 days was allowed between animal receipt and commencement of tumour inoculation. When the female SCID mice were 6-7 weeks of age (20-25 g), each mouse was subcutaneously (s.c.) injected with 5×10^6 Caki-1 human renal carcinoma cells in 0.1 ml of PBS at the right flank of the mice to induce tumour growth.
Dose-Preparation and Treatment: The dose for SEQ ID NO:1 was formulated using the following procedure. From a concentrated stock solution (usually prepared in ddH2O at a concentration of 50 mg/ml and kept at −80° C.), SEQ ID NO:1 was diluted with saline to achieve a final target concentration of 1 or 2.5 mg/ml on the first day of dosing. Enough SEQ ID NO:1 was diluted so that the compound could be administered by bolus infusion into the tail vein every other day for the duration of the experiment. Recombinant interferon alfa-2b (Intron A™) was utilized according to the dose and treatment schedules below. The treatments were started 7 days after the tumour cell inoculation when the tumour size reached an approximate volume of 125 mm^3. Each treatment group contained 10 tumour-bearing mice. Routes of administration are indicated as follows: intravenous (i.v.) and intratumoural (i:t.).
Groups and Treatments: The following treatment groups were evaluated: • 1. Saline treated group-1: saline 0.1 ml/mouse/48 hours, i.v., n=10 • 2. Saline treated group-2: saline 0.05 ml/mouse/5 days/week, i.t., n=10 • 3. […] Intron A 10^3 unit/5 days/week treated group: 10^3 unit Intron A in 0.05 ml saline, i.t., n=10 • 6. Intron A 10^5 unit/5 days/week treated group: 10^5 unit Intron A in 0.05 ml saline, i.t., n=10 • 7. SEQ ID NO:1 1 mg/kg Plus Intron A 10^3 treated group: “3+5”, n=10 • 8. SEQ ID NO:1 1 mg kg Plus Intron A 10^5 treated group: “3+6”, n=10 • 9. SEQ ID NO:1 2.5 mg/kg Plus Intron A […], n=10 • 10. SEQ ID NO:1 2.5 mg/kg Plus Intron A 10^5 treated group: “4+6”, n=10
Mice received 25 treatments with SEQ ID NO:1 and 30 treatments with Intron A. The dosing schedule for Intron A was: treatment with Intron A for 3 consecutive weeks, 1 week off, and treatment with Intron A again for another 3 consecutive weeks. The dosing schedule for SEQ ID NO:1 was treatment with SEQ ID NO:1 every other day for the duration of the experiment.
Endpoints: The effects of SEQ ID NO:1 and Intron A on tumour growth were determined. Tumour sizes were measured every week from day 7 after the tumour cell inoculation in two dimensions using a caliper, and the volume was expressed in mm^3 using the formula: V=0.5 a×b^2, where a and b are the long and short diameters of the tumour, respectively. Mean tumour volumes calculated from each measurement were then plotted in a standard graph to compare the anti-tumour efficacy to that of controls. A day after the last treatment, tumours were excised from the animals and their weights were measured.
A second independent in vivo study was conducted as described in Example 1 utilizing SCID mice (female, 6 weeks old) and Caki-1 (human renal carcinoma cell line) to test the efficacy of SEQ ID NO:1 in combination with IFN alpha Briefly, 5×10^6 Caki-1 human renal carcinoma cells in 0.1 ml of PBS were injected subcutaneously at the right flank of the mice to induce tumour growth. Treatments started on the seventh day after tumour cell injection. […]

[2] = system: Caki-1 human renal cancer cells; test: Caki-1 renal tumour xenograft in SCID mice, SEQ ID NO:1 and chemotherapeutics
Protocol: Caki-1 human renal cancer cells (1×10^7 cells in […] of PBS) were subcutanteously injected into the right flank of 6-7 weeks old female SCID mice. After the size of tumour reached an approximate volume of 200 mm^3, 7 days post tumour cell injection, SEQ ID NO:1 was administered by bolus infusion into the tail vein every other day at 10 mg/kg. Control animals received saline alone for the same period. The antitumour effect of SEQ ID NO:1 was further compared to that of two chemotherapeutic agents: 5-FU and vinblastine. 5-FU was administered intraperitoneally at days 7-13, 21-27 and 35-36 with a dose of 13 mg/kg/day, while vinblastin was administered intraperitoneally at days 7, 14, 21, 28 and 35 at a dose of 0.6 mg/kg/week. Antitumour effects of each of these compounds were further compared to those of SEQ ID NO:1 in combination with 5-FU or with vinblastin. The two chemotherapeutic agents were applied as described above, one hour after the treatments with SEQ ID NO:1 when combination treatments occurred on the same day. All treatments were stopped at day 36. A day after the last treatment, tumours were excised from the animals and their weights were measured.

[3] = system: BxPC-3 human pancreatic carcinoma cells; test: BxPC-3 gemcitabine resistant pancreatic carcinoma xenograft in CD-1 nude mice
Protocol: BxPC-3 human pancreatic carcinoma cells (3×10^6 cells in 100 μl of PBS) were subcutaneously injected into the right flank of 6-7 weeks old female CD-1 nude mice. BxPC-3 is a gemcitabine resistant call line. After the size of tumour reached an approximate volume of 100 mm^3, 21 days post tumour cell injection, SEQ ID NO:1 was administered by bolus infusion into the tail vein every other day at 10 mg/kg 17 times. Control animals received saline alone for the same period. Antitumour effect of SEQ ID NO:1 was further compared to that of Gemcitabine. Gemcitabine was administered intravenously every three days at a dose of 100 mg/kg. Antitumour activities were estimated by the inhibition of tumour volume, which was measured with caliper. Each point represents mean tumour volume calculated from 10 animals per experimental group. […] As expected, treatment with Gemcitabine during the same period was ineffective against Gemcitabine-resistant tumour (FIGS. 19A & B).

Q: Which results are given for “GGCTAAATCGCTCCACCAAG (chemistry not given here) [SEQ ID NO: 1, antisense oligonucleotide that hybridizes to the coding region of human ribonucleotide reductase R2 mRNA]”?
A: anti-tumour efficacy (tumour volume, tumour weight) ([1]; Example 2, SEQ ID NO:1 1 or 2.5 mg/kg/48 hours i.v., Intron A 10^3 or 10^5 unit 5 days/week i.t.): significant anti-tumour efficacy; anti-tumour efficacy (tumour volume, tumour weight) ([1]; Example 3, SEQ ID NO:1 2.5 or 5 mg/kg every 2 days i.v., Intron 10^5 unit 5 days/week i.t.): significant anti-tumour efficacy; anti-tumour efficacy (tumour volume, tumour weight) ([1]; Example 4, oligonucleotide 2.5 mg/kg every 2 days i.v., Intron A 10^5 unit 5 days/week i.t.): significant anti-tumour efficacy; Tumour weight as % of saline control ([2]; Caki (renal), Mouse CD-1): 3.3%; antitumour effect (tumour weight) ([2]; SEQ ID NO:1 10 mg/kg every other day i.v., 5-FU 13 mg/kg/day i.p., vinblastin 0.6 mg/kg/week i.p.): significant delay of tumour growth; also recorded: superior to the inhibitory effects observed with each of two chemotherapeutic compounds; Tumour weight as % of saline control ([3]; BxPC-3 (pancreatic), Gemcitabine resistance, CD-1): 5.8%; antitumour effect (tumour volume) ([3]; SEQ ID NO:1 10 mg/kg 17 times i.v., Gemcitabine 100 mg/kg i.v. every three days): significant delay of tumour growth
